# Experimental data published in patent US20180256673A1, “METHODS FOR TREATING FUNGAL INFECTIONS” (priority 2015, published 2018).
# Read-outs that look alike come from different tables or passages of the source.
# Assays:
# Assay in all cases: Susceptibility testing of VVC clinical isolates at pH 7 and 4 (CLSI M27-A3)
# [1] = system: C. tropicalis vaginal isolates; assay type: cell-based; settings: Candida tropicalis, 13 isolates, read-out: MIC90
# [2] = system: C. glabrata vaginal isolates; assay type: cell-based, Candida glabrata; settings: for Number of isolates at MIC 0.03 μg/mL / Number of isolates at MIC 0.06 μg/mL / Number of isolates at MIC 0.25 μg/mL / Number of isolates at MIC 0.5 μg/mL / Number of isolates at MIC 1 μg/mL / Number of isolates at MIC 2 μg/mL / Number of isolates at MIC 0.125 μg/mL / Number of isolates at MIC 4 μg/mL / Number of isolates at MIC ≥4 μg/mL: 21 VVC isolates; for MIC90: Nakaseomyces glabratus, 21 isolates, read-out: MIC90
# [3] = system: C. albicans vaginal isolates; assay type: cell-based, Candida albicans; settings: for MIC / MIC90: Candida albicans; for MIC: read-out: MIC; for MIC90: 60 isolates, read-out: MIC90
# [4] = system: C. parapsilosis vaginal isolates; assay type: cell-based, Candida parapsilosis; settings: 14 isolates, read-out: MIC90
structure (smiles),measurement,setting,value
"CCC(C)n1ncn(-c2ccc(N3CCN(c4ccc(OCC5COC(Cn6cncn6)(c6ccc(Cl)cc6Cl)O5)cc4)CC3)cc2)c1=O (centres unmarked) [ITR, itraconazole]",MIC90,"[1]; pH 4, 24 h",0.125 µg/mL
same,MIC90,"[1]; pH 4, 48 h",0.5 µg/mL
same,MIC90,"[1]; pH 7, 24 h",0.125 µg/mL
same,MIC90,"[1]; pH 7, 48 h",0.5 µg/mL
same,Number of isolates at MIC 0.03 μg/mL,"[2]; 24 h, pH 4",1
same,Number of isolates at MIC 0.06 μg/mL,"[2]; 24 h, pH 4",2
same,Number of isolates at MIC 0.25 μg/mL,"[2]; 24 h, pH 4",2
same,Number of isolates at MIC 0.5 μg/mL,"[2]; 24 h, pH 4",9
same,Number of isolates at MIC 1 μg/mL,"[2]; 24 h, pH 4",6
same,Number of isolates at MIC 2 μg/mL,"[2]; 24 h, pH 4",1
same,Number of isolates at MIC 0.03 μg/mL,"[2]; 24 h, pH 7",4
same,Number of isolates at MIC 0.06 μg/mL,"[2]; 24 h, pH 7",2
same,Number of isolates at MIC 0.125 μg/mL,"[2]; 24 h, pH 7",6
same,Number of isolates at MIC 0.25 μg/mL,"[2]; 24 h, pH 7",3
same,Number of isolates at MIC 0.5 μg/mL,"[2]; 24 h, pH 7",3
same,Number of isolates at MIC 1 μg/mL,"[2]; 24 h, pH 7",2
same,Number of isolates at MIC 4 μg/mL,"[2]; 24 h, pH 7",1
same,Number of isolates at MIC 0.03 μg/mL,"[2]; 48 h, pH 4",1
same,Number of isolates at MIC 0.06 μg/mL,"[2]; 48 h, pH 4",1
same,Number of isolates at MIC 0.125 μg/mL,"[2]; 48 h, pH 4",1
same,Number of isolates at MIC 0.5 μg/mL,"[2]; 48 h, pH 4",2
same,Number of isolates at MIC 1 μg/mL,"[2]; 48 h, pH 4",4
same,Number of isolates at MIC 2 μg/mL,"[2]; 48 h, pH 4",2
same,Number of isolates at MIC 4 μg/mL,"[2]; 48 h, pH 4",2
same,Number of isolates at MIC ≥4 μg/mL,"[2]; 48 h, pH 4",8
same,Number of isolates at MIC 0.03 μg/mL,"[2]; 48 h, pH 7",1
same,Number of isolates at MIC 0.06 μg/mL,"[2]; 48 h, pH 7",1
same,Number of isolates at MIC 0.125 μg/mL,"[2]; 48 h, pH 7",1
same,Number of isolates at MIC 0.25 μg/mL,"[2]; 48 h, pH 7",5
same,Number of isolates at MIC 0.5 μg/mL,"[2]; 48 h, pH 7",8
same,Number of isolates at MIC 2 μg/mL,"[2]; 48 h, pH 7",2
same,Number of isolates at MIC ≥4 μg/mL,"[2]; 48 h, pH 7",3
same,MIC90,"[2]; pH 4, 24 h",1 µg/mL
same,MIC90,"[2]; pH 4, 48 h",> 4 µg/mL
same,MIC90,"[2]; pH 7, 24 h",1 µg/mL
same,MIC90,"[2]; pH 7, 48 h",> 4 µg/mL
same,Number of isolates at MIC 0.008 μg/mL,"[3]; 60 VVC isolates, 24 h, pH 4",8
same,Number of isolates at MIC 0.03 μg/mL,"[3]; 60 VVC isolates, 24 h, pH 4",13
same,Number of isolates at MIC 0.06 μg/mL,"[3]; 60 VVC isolates, 24 h, pH 4",8
same,Number of isolates at MIC 0.125 μg/mL,"[3]; 60 VVC isolates, 24 h, pH 4",2
same,Number of isolates at MIC 0.25 μg/mL,"[3]; 60 VVC isolates, 24 h, pH 4",2
same,Number of isolates at MIC 0.5 μg/mL,"[3]; 60 VVC isolates, 24 h, pH 4",2
same,Number of isolates at MIC 2 μg/mL,"[3]; 60 VVC isolates, 24 h, pH 4",1
same,Number of isolates at MIC […],"[3]; 60 VVC isolates, 24 h, pH 4",24
same,Number of isolates at MIC 0.008 μg/mL,"[3]; 60 VVC isolates, 24 h, pH 7",21
same,Number of isolates at MIC 0.03 μg/mL,"[3]; 60 VVC isolates, 24 h, pH 7",9
same,Number of isolates at MIC 0.06 μg/mL,"[3]; 60 VVC isolates, 24 h, pH 7",3
same,Number of isolates at MIC 0.25 μg/mL,"[3]; 60 VVC isolates, 24 h, pH 7",2
same,Number of isolates at MIC 0.5 μg/mL,"[3]; 60 VVC isolates, 24 h, pH 7",2
same,Number of isolates at MIC 2 μg/mL,"[3]; 60 VVC isolates, 24 h, pH 7",1
same,Number of isolates at MIC […],"[3]; 60 VVC isolates, 24 h, pH 7",20
same,Number of isolates at MIC 0.03 μg/mL,"[3]; 60 VVC isolates, 48 h, pH 4",23
same,Number of isolates at MIC 0.06 μg/mL,"[3]; 60 VVC isolates, 48 h, pH 4",10
same,Number of isolates at MIC 0.125 μg/mL,"[3]; 60 VVC isolates, 48 h, pH 4",6
same,Number of isolates at MIC 0.25 μg/mL,"[3]; 60 VVC isolates, 48 h, pH 4",3
same,Number of isolates at MIC 0.5 μg/mL,"[3]; 60 VVC isolates, 48 h, pH 4",3
same,Number of isolates at MIC 1 μg/mL,"[3]; 60 VVC isolates, 48 h, pH 4",1
same,Number of isolates at MIC […],"[3]; 60 VVC isolates, 48 h, pH 4",10
same,Number of isolates at MIC ≥4 μg/mL,"[3]; 60 VVC isolates, 48 h, pH 4",4
same,Number of isolates at MIC 0.008 μg/mL,"[3]; 60 VVC isolates, 48 h, pH 7",6
same,Number of isolates at MIC 0.03 μg/mL,"[3]; 60 VVC isolates, 48 h, pH 7",8
same,Number of isolates at MIC 0.125 μg/mL,"[3]; 60 VVC isolates, 48 h, pH 7",6
same,Number of isolates at MIC 0.25 μg/mL,"[3]; 60 VVC isolates, 48 h, pH 7",2
same,Number of isolates at MIC 0.5 μg/mL,"[3]; 60 VVC isolates, 48 h, pH 7",2
same,Number of isolates at MIC 2 μg/mL,"[3]; 60 VVC isolates, 48 h, pH 7",1
same,Number of isolates at MIC […],"[3]; 60 VVC isolates, 48 h, pH 7",34
same,Number of isolates at MIC ≥4 μg/mL,"[3]; 60 VVC isolates, 48 h, pH 7",1
same,MIC,"[3]; 48 h, pH 4, fluconazole-resistant isolate 1, pH 4, 48 h",0.125 µg/mL
same,MIC,"[3]; 48 h, pH 4, fluconazole-resistant isolate 2, pH 4, 48 h",0.25 µg/mL
same,MIC,"[3]; 48 h, pH 4, fluconazole-resistant isolate 3, pH 4, 48 h",0.5 µg/mL
same,MIC,"[3]; 48 h, pH 4, fluconazole-resistant isolate 4, pH 4, 48 h",0.125 µg/mL
same,MIC,"[3]; 48 h, pH 4, fluconazole-resistant isolate 5, pH 4, 48 h",> 4 µg/mL
same,MIC,"[3]; 48 h, pH 4, fluconazole-resistant isolate 6, pH 4, 48 h",> 4 µg/mL
same,MIC,"[3]; 48 h, pH 4, fluconazole-resistant isolate 7, pH 4, 48 h",0.5 µg/mL
same,MIC,"[3]; 48 h, pH 4, fluconazole-resistant isolate 8, pH 4, 48 h",> 4 µg/mL
same,MIC,"[3]; 48 h, pH 4, fluconazole-resistant isolate 9, pH 4, 48 h",> 4 µg/mL
same,MIC,"[3]; 48 h, pH 4, fluconazole-resistant isolate 10, pH 4, 48 h",0.25 µg/mL
same,MIC,"[3]; 48 h, pH 7, fluconazole-resistant isolate 1, pH 7, 48 h",0.125 µg/mL
same,MIC,"[3]; 48 h, pH 7, fluconazole-resistant isolate 2, pH 7, 48 h",0.25 µg/mL
same,MIC,"[3]; 48 h, pH 7, fluconazole-resistant isolate 3, pH 7, 48 h",0.5 µg/mL
same,MIC,"[3]; 48 h, pH 7, fluconazole-resistant isolate 4, pH 7, 48 h",0.03 µg/mL
same,MIC,"[3]; 48 h, pH 7, fluconazole-resistant isolate 5, pH 7, 48 h",0.25 µg/mL
same,MIC,"[3]; 48 h, pH 7, fluconazole-resistant isolate 6, pH 7, 48 h",0.016 µg/mL
same,MIC,"[3]; 48 h, pH 7, fluconazole-resistant isolate 7, pH 7, 48 h",0.5 µg/mL
same,MIC,"[3]; 48 h, pH 7, fluconazole-resistant isolate 8, pH 7, 48 h",2 µg/mL
same,MIC,"[3]; 48 h, pH 7, fluconazole-resistant isolate 9, pH 7, 48 h",> 4 µg/mL
same,MIC,"[3]; 48 h, pH 7, fluconazole-resistant isolate 10, pH 7, 48 h",0.125 µg/mL
same,MIC90,"[3]; pH 4, 24 h",0.125 µg/mL
same,MIC90,"[3]; pH 4, 48 h",5 µg/mL
same,MIC90,"[3]; pH 7, 24 h",0.06 µg/mL
same,MIC90,"[3]; pH 7, 48 h",0.125 µg/mL
same,MIC90,"[4]; pH 4, 24 h",0.016 µg/mL
same,MIC90,"[4]; pH 4, 48 h",0.125 µg/mL
same,MIC90,"[4]; pH 7, 24 h",0.03 µg/mL
same,MIC90,"[4]; pH 7, 48 h",0.125 µg/mL
